According to US20200255884A1, “METHOD OF DETECTION OF DNA END(S) AND ITS USE” (INTODNA SP. Z O.O., priority 2017, published 2020):

System: HeLa 21-4 cells
Assay: Combination of Procedures 1 and 2 for detection of DNA breaks in isolated chromatin of HeLa cells
Type: cell-based
Conditions: H2O2 4 mM, 30 minutes; control 6.0±0.1
Procedure: In this Example, HeLa 21-4 cells (obtained from P.R. Cook, University of Oxford) were seeded on 6-well plates and cultured for 48 hours in DMEM supplemented with 10% FBS until the culture reached 100% confluency (number of cells: 1.2×10^6 per 1 well). Next, cells were treated with the DNA damaging agent H2O2 which was added directly to the growth medium (final concentration: 4 mM). The cells were incubated at 37° C. for 30 minutes in the standard cell culture incubator with CO2 level control. The control, untreated cells and the damaged cells (H2O2) were then harvested using 0.5 ml trypsin and transferred to 1.5 ml Eppendorf tubes. Afterwards, trypsin was inactivated by adding 0.5 ml DMEM supplemented with 10% FBS. Subsequently, cells were spun down in the table top centrifuge (Eppendorf centrifuge, 5417 C, rotor: F45-30-11) (1700 rpm, 5 minutes, room temperature). The cell pellet was resuspended in 10 mM Tris (pH 8.8), a small aliquot of the cells in suspension (50 μl) was transferred to a new 1.5 ml Eppendorf tube and spun down in the table top centrifuge (1 minute, 14000 rpm, room temperature). The supernatant was discarded and the washing step in the same volume (50 μl) of 10 mM Tris (pH 8.8) was repeated (centrifugation in the table top centrifuge (1 minute, 14000 rpm, room temperature)). […]

Compound: OO [H2O2]
- fluorescence intensity (mean grey value) of immobilized modified DNA: 8.9±0.1 a.u.
